Results: patent US11590116B2 (THERAVANCE BIOPHARMA R&D IP, LLC, priority 2019, dated 2023)

What was measured:
[1] = biological target: T1, recombinant human ALK5 (TGF-βR1) protein (Homo sapiens, UniProt P36897); assay: Biochemical ALK5 (TGF-βR1) assay to measure pKi (LANCE Ultra ULight kinase assay); details: apparent pKi from pIC50 by Cheng-Prusoff, read-out: ALK5 pKi (converted)
T1 construct: purchased Life Technologies PR9075A
T1 sequence (P36897 34-503): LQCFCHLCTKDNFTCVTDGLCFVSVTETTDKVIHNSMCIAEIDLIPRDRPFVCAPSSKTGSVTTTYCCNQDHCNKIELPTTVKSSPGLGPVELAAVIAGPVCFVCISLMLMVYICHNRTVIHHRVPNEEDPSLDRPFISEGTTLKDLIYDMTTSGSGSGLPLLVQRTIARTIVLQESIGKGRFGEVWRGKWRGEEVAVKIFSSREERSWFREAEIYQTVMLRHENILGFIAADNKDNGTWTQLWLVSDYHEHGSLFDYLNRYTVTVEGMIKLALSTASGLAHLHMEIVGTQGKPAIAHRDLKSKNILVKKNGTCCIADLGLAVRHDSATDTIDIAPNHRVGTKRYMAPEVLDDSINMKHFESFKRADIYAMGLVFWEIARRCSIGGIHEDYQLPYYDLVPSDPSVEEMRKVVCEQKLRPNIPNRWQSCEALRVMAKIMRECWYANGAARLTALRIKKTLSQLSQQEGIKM
How it was run: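 After a 60 min room-temperature preincubation of ALK5 with compound, phosphorylation proceeds 60 min at 37 °C on ATP addition (125 μM as 5× stock). Detection: Eu-labelled phospho-Thr1342 Topo IIα antibody in EDTA buffer, pH 7.0; emission 665 nm.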

[2] = test system: TGF-β-stimulated SMAD3 phosphorylation in BEAS-2B cells; assay: Cellular ALK5 potency assay, inhibition of TGF-β stimulated pSMAD3 formation in BEAS-2B cells; assay type: cell-based; details: Homo sapiens; inhibition of TGF-β stimulated pSMAD3 formation, BEAS-2B cells; read-out: BEAS2B pIC50 (converted)
How it was run: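 Cells seeded overnight; rinse with supplemented HBSS; compound 1 h at 37 °C; TGF-β 10 ng/mL final, 30 min; lyse; AlphaLISA acceptor and detector beads 2 h apart, read next day. Potency expressed as pIC50.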

| Ki [1] [nM] | Compound | IC50 [2] [nM] |
| --- | --- | --- |
| < 0.0316 | Cc1cccc(-c2[nH]cnc2-c2ccc3ncc(-c4cc(C(=O)O[C@@H]5CCNC5)ccn4)cc3c2)n1 [Compound 1087, [(3R)-pyrrolidin-3-yl] 2-[6-[5-(6-methyl-2-pyridyl)-1H-imidazol-4-yl]-3-quinolyl]pyridine-4-carboxylate] | 25.1 to 158 |
| 0.0398 to 0.316 | Cc1cccc(-c2[nH]cnc2-c2ccc3ncc(-c4ccc(C(=O)OC5CCNCC5)s4)cc3c2)n1 [Compound 1010, piperidin-4-yl 5-(6-(5-(6-methylpyridin-2-yl)-1H-imidazol-4-yl)quinolin-3-yl)thiophene-2-carboxylate] | 25.1 to 158 |
| 0.0398 to 0.316 | CNC1CCN(c2cnc3ccc(-c4c(-c5cccc(C)n5)nc5ccccn45)nc3c2)CC1 [Compound 501, N-methyl-1-[6-[2-(6-methyl-2-pyridyl)imidazo[1,2-a]pyridin-3-yl]-1,5-naphthyridin-3-yl]piperidin-4-amine] | 25.1 to 158 |
| 0.0398 to 0.316 | Cc1cccc(-c2[nH]cnc2-c2ccc3ncc(C(=O)OCCN4CC5(CCNCC5)C4)cc3c2)n1 [Compound 891, 2-(2,7-diazaspiro[3.5]nonan-2-yl)ethyl 6-(5-(6-methylpyridin-2-yl)-1H-imidazol-4-yl)quinoline-3-carboxylate] | 200 to 1260 |
| 0.0398 to 0.316 | Cc1cccc(-c2nc3ccccn3c2-c2ccc3ncc(-c4nc5n(n4)CCNC5)cc3n2)n1 [Compound 415, 2-[2-(6-methyl-2-pyridyl)imidazo[1,2-a]pyridin-3-yl]-7-(5,6,7,8-tetrahydro-[1,2,4]triazolo[1,5-a]pyrazin-2-yl)-1,5-naphthyridine] | < 20 |
| < 0.0316 | Cc1cccc(-c2n[nH]cc2-c2ccc3ncc(-c4cncs4)cc3n2)n1 [Compound 190, 5-[6-[3-(6-methyl-2-pyridyl)-1H-pyrazol-4-yl]-1,5-naphthyridin-3-yl]thiazole] | < 20 |
| 0.0398 to 0.316 | Cc1nc(-c2n[nH]cc2-c2ccc3ncc(-c4[nH]nc5c4CCNC5)cc3n2)ccc1F [Compound 7, 2-[3-(5-fluoro-6-methyl-2-pyridyl)-1H-pyrazol-4-yl]-7-(4,5,6,7-tetrahydro-2H-pyrazolo[3,4-c]pyridin-3-yl)-1,5-naphthyridine] | 200 to 1260 |
| < 0.0316 | Cc1cccc(-c2[nH]cnc2-c2ccc3ncc(-c4ncc(C(=O)O[C@H]5CCNC5)s4)cc3c2)n1 [Compound 1160, [(3S)-pyrrolidin-3-yl] 2-[6-[5-(6-methyl-2-pyridyl)-1H-imidazol-4-yl]-3-quinolyl]thiazole-5-carboxylate] | < 20 |
| < 0.0316 | Cc1cccc(-c2n[nH]cc2-c2ccc3ncc(-c4ccnc(C(C)(C)C#N)c4)cc3n2)n1 [Compound 341, 2-methyl-2-[4-[6-[3-(6-methyl-2-pyridyl)-1H-pyrazol-4-yl]-1,5-naphthyridin-3-yl]-2-pyridyl]propanenitrile] | < 20 |
| 0.0398 to 0.316 | Cc1cccc(-c2[nH]cnc2-c2ccc3ncc(-c4cc(C(=O)OC5CCNCC5)ccn4)cc3c2)n1 [Compound 1115, 4-piperidyl 2-[6-[5-(6-methyl-2-pyridyl)-1H-imidazol-4-yl]-3-quinolyl]pyridine-4-carboxylate] | 25.1 to 158 |
| 0.0398 to 0.316 | Cc1cccc(-c2[nH]cnc2-c2ccc3ncc(-c4ccc(CN5CCNCC5)nc4)cc3c2)n1 [Compound 1026, 6-[5-(6-methyl-2-pyridyl)-1H-imidazol-4-yl]-3-[6-(piperazin-1-ylmethyl)-3-pyridyl]quinoline] | 25.1 to 158 |
| 0.0398 to 0.316 | Cc1cccc(-c2[nH]ncc2-c2ccc3nccc(C(=O)OCC4CCNCC4)c3c2)n1 [Compound 1225, 4-piperidylmethyl 6-[5-(6-methyl-2-pyridyl)-1H-pyrazol-4-yl]quinoline-4-carboxylate] | 25.1 to 158 |
| < 0.0316 | Cc1cccc(-c2n[nH]cc2-c2ccc3ncc(-c4cccnc4)cc3n2)n1 [Compound 595, 2-[3-(6-methyl-2-pyridyl)-1H-pyrazol-4-yl]-7-(3-pyridyl)-1,5-naphthyridine] | < 20 |
| < 0.0316 | CCc1cccc(-c2n[nH]cc2-c2ccc3ncc(N4CCC(N5CCCC5)CC4)cc3n2)n1 [Compound 532, 2-(3-(6-ethylpyridin-2-yl)-1H-pyrazol-4-yl)-7-(4-(pyrrolidin-1-yl)piperidin-1-yl)-1,5-naphthyridine] | 25.1 to 158 |
| 0.0398 to 0.316 | Cc1cccc(-c2[nH]cnc2-c2ccc3ncc(N4CCN(C)C(CC(=O)O[C@@H]5CCNC5)C4)cc3c2)n1 (stereo partly drawn) [Compound 344, [(3R)-pyrrolidin-3-yl]2-[1-methyl-4-[6-[5-(6-methyl-2-pyridyl)-1H-imidazol-4-yl]-3-quinolyl]piperazin-2-yl]acetate] | 200 to 1260 |
| 0.0398 to 0.316 | Cc1cccc(-c2[nH]cnc2-c2ccc3ncc(N4CCNC(CC(=O)OCC5CNC5)C4)cc3c2)n1 (stereo not shown) [Compound 491, azetidin-3-ylmethyl 2-[4-[6-[5-(6-methyl-2-pyridyl)-1H-imidazol-4-yl]-3-quinolyl]piperazin-2-yl]acetate] | 200 to 1260 |
| 0.0398 to 0.316 | Cc1nc(-c2n[nH]cc2-c2ccc3ncc(N4CCNCC4)cc3n2)ccc1F [Compound 661, 2-[3-(5-fluoro-6-methyl-2-pyridyl)-1H-pyrazol-4-yl]-7-piperazin-1-yl-1,5-naphthyridine] | < 20 |
| < 0.0316 | Cc1nc(-c2n[nH]cc2-c2ccc3ncc(-c4cn[nH]c4)cc3c2)ccc1F [Compound 449, 6-[3-(5-fluoro-6-methyl-2-pyridyl)-1H-pyrazol-4-yl]-3-(1H-pyrazol-4-yl)quinoline] | < 20 |
| 3.98 to 31.6 | CCOC(=O)CCN(C)c1cnc2ccc(-c3c[nH]nc3-c3cccc(C)n3)nc2c1 [Compound 601, ethyl 3-[methyl-[6-[3-(6-methyl-2-pyridyl)-1H-pyrazol-4-yl]-1,5-naphthyridin-3-yl]amino]propanoate] | 200 to 1260 |
| 0.398 to 3.16 | Cc1cccc(-c2[nH]cnc2-c2ccc3nccc(C(=O)OC[C@H]4CC[C@H](N)CC4)c3c2)n1 [Compound 1081, (4-aminocyclohexyl)methyl 6-[5-(6-methyl-2-pyridyl)-1H-imidazol-4-yl]quinoline-4-carboxylate] | 200 to 1260 |
| 0.0398 to 0.316 | Cc1cccc(-c2n[nH]cc2-c2ccc3ncc(N4CCCN(CC(C)C)CC4)cc3n2)n1 [Compound 320, 7-(4-isobutyl-1,4-diazepan-1-yl)-2-[3-(6-methyl-2-pyridyl)-1H-pyrazol-4-yl]-1,5-naphthyridine] | 200 to 1260 |
| 0.0398 to 0.316 | Cc1cccc(-c2[nH]cnc2-c2ccc3ncc(Nc4ccc(N5CCN(C)CC5)cn4)cc3n2)n1 [Compound 653, N-(5-(4-methylpiperazin-1-yl)pyridin-2-yl)-6-(5-(6-methylpyridin-2-yl)-1H imidazol-4-yl)-1,5-naphthyridin-3-amine] | 25.1 to 158 |
| < 0.0316 | Cc1cccc(-c2n[nH]cc2-c2ccc3ncc(N4CCN(CC#N)CC4)cc3n2)n1 [Compound 299, 2-[4-[6-[3-(6-methyl-2-pyridyl)-1H-pyrazol-4-yl]-1,5-naphthyridin-3-yl]piperazin-1-yl]acetonitrile] | < 20 |
